Experimental data published in ChEMBL document CHEMBL1201862, “PubChem BioAssay data set” (2004).
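Exposure lasted 48 hours, with cells grown in 96-well plates and compounds tested at five concentrations. GI50 marks 50% less growth.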 The source made the active and inactive calls. Rule as the data show it: active = GI50 up to about 1.1 µM and inactive = higher.

Experiments:
Assay in all cases: growth of human tumour cells (NCI), 48 h
MCF7 = system: MCF7
NCI-H23 = system: NCI-H23
PC-3 = system: PC-3
SF-295 = system: SF-295
COLO 205 = system: COLO 205
ACHN = system: ACHN
IGROV-1 = system: IGROV-1
NCI/ADR-RES = system: NCI/ADR-RES
CAKI-1 = system: CAKI-1
HT-29 = system: HT-29
MDA-MB-435 = system: MDA-MB-435
T47D = system: T47D
SN12C = system: SN12C
HCT-116 = system: HCT-116
SNB-19 = system: SNB-19
SK-MEL-2 = system: SK-MEL-2
BT-549 = system: BT-549
A498 = system: A498
EKVX = system: EKVX
KM12 = system: KM12

| SMILES | GI50 (MCF7) | GI50 (NCI-H23) | GI50 (PC-3) | GI50 (SF-295) | GI50 (COLO 205) | GI50 (ACHN) | GI50 (IGROV-1) | GI50 (NCI/ADR-RES) | GI50 (CAKI-1) | GI50 (HT-29) | GI50 (MDA-MB-435) | GI50 (T47D) | GI50 (SN12C) | GI50 (HCT-116) | GI50 (SNB-19) | GI50 (SK-MEL-2) | GI50 (BT-549) | GI50 (A498) | GI50 (EKVX) | GI50 (KM12) |
| --- | --- | --- | --- | --- | --- | --- | --- | --- | --- | --- | --- | --- | --- | --- | --- | --- | --- | --- | --- | --- |
| O=C(/C=C/C(=O)N1CCCC1)N1CCCC1 | > 100 µM (inactive) | > 100 µM (inactive) | > 100 µM (inactive) | > 100 µM (inactive) | > 100 µM (inactive) | > 100 µM (inactive) | > 100 µM (inactive) | > 100 µM (inactive) | > 100 µM (inactive) | > 100 µM (inactive) | > 100 µM (inactive) | > 100 µM (inactive) | > 100 µM (inactive) | > 100 µM (inactive) | > 100 µM (inactive) | > 100 µM (inactive) | > 100 µM (inactive) | > 100 µM (inactive) | > 100 µM (inactive) | > 100 µM (inactive) |
| CCOP(=O)(OCC)C(F)(F)CC1CCCCC1 | > 10 µM (inactive) | > 10 µM (inactive) | > 10 µM (inactive) | > 10 µM (inactive) | > 10 µM (inactive) | > 10 µM (inactive) | > 10 µM (inactive) | > 10 µM (inactive) | > 10 µM (inactive) | > 10 µM (inactive) | > 10 µM (inactive) | > 10 µM (inactive) | > 10 µM (inactive) | > 10 µM (inactive) | > 10 µM (inactive) | > 10 µM (inactive) | > 10 µM (inactive) | > 10 µM (inactive) | > 10 µM (inactive) | > 10 µM (inactive) |
| CC(C)NC(=O)OCc1c(COC(=O)NC(C)C)n(C)c2c1ccc1ccsc12 | 5.16 µM (inactive) | 5.28 µM (inactive) | 15.3 µM (inactive) | 7.62 µM (inactive) | 12.9 µM (inactive) | 3.05 µM (inactive) | 12.5 µM (inactive) | 6.75 µM (inactive) | 1.81 µM (inactive) | 12.1 µM (inactive) | 7.35 µM (inactive) | 15.5 µM (inactive) | 5.66 µM (inactive) | 9.84 µM (inactive) | 10.8 µM (inactive) | 12.7 µM (inactive) | 7.16 µM (inactive) | 9.73 µM (inactive) | 17.5 µM (inactive) | 15.3 µM (inactive) |
| Cc1cc(C)n(CC(Cn2nc(C)cc2C)=C(/C(Cl)=C(/Cl)Nc2ccc([N+](=O)[O-])cc2)[N+](=O)[O-])n1 | 3.71 µM (inactive) | 2.43 µM (inactive) | 3.42 µM (inactive) | 5.87 µM (inactive) | 2.67 µM (inactive) | 3.25 µM (inactive) | 2.62 µM (inactive) | 8.07 µM (inactive) | 1.81 µM (inactive) | 3.28 µM (inactive) | 1.84 µM (inactive) | 3.33 µM (inactive) | 3.82 µM (inactive) | 3.7 µM (inactive) | 4.49 µM (inactive) | 3.05 µM (inactive) | 3.33 µM (inactive) | 3.37 µM (inactive) | 3.85 µM (inactive) | 1.81 µM (inactive) |
| Cc1cc2nc(O)c(C(C)C(=O)c3ccc(Cl)cc3)nc2cc1C (stereo not given) | 27.5 µM (inactive) | 46.3 µM (inactive) | 31 µM (inactive) | 31.7 µM (inactive) | 22 µM (inactive) | 54.1 µM (inactive) | 61.9 µM (inactive) | 28.6 µM (inactive) | 81.7 µM (inactive) | 22.1 µM (inactive) | 20.1 µM (inactive) | 32.3 µM (inactive) | 50.7 µM (inactive) | 33.6 µM (inactive) | 56.4 µM (inactive) | > 100 µM (inactive) | 54.5 µM (inactive) | 23.1 µM (inactive) | 14.2 µM (inactive) | 29.8 µM (inactive) |
| COc1ccc2sc(-n3nc4ccccc4c3Nc3nc4ccc(OC)cc4s3)nc2c1 | 6.47 µM (inactive) | 1.73 µM (inactive) | 2.89 µM (inactive) | 3.29 µM (inactive) | 14.9 µM (inactive) | 2.6 µM (inactive) | 2.02 µM (inactive) | 2.26 µM (inactive) | 1.28 µM (inactive) | 3.59 µM (inactive) | 3.24 µM (inactive) | 1 µM (active) | 3.07 µM (inactive) | 1.8 µM (inactive) | 2.33 µM (inactive) | 15 µM (inactive) | 2.13 µM (inactive) | 0.873 µM (active) | 3.52 µM (inactive) | 3.99 µM (inactive) |
| CCCCC(=O)Nc1ccc2cc(C(=O)OC)c(Cl)nc2n1 | 13.3 µM (inactive) | > 100 µM (inactive) | 19.7 µM (inactive) | 40.1 µM (inactive) | 12.8 µM (inactive) | > 100 µM (inactive) | > 100 µM (inactive) | > 100 µM (inactive) | > 60.7 µM (inactive) | > 100 µM (inactive) | > 100 µM (inactive) | 7.89 µM (inactive) | 50 µM (inactive) | > 93.5 µM (inactive) | 16.5 µM (inactive) | > 100 µM (inactive) | > 100 µM (inactive) | 37.1 µM (inactive) | 59.7 µM (inactive) | 3.15 µM (inactive) |
| c1ccc(C(CCN2CC3CCC(CC3)C2)c2ccccc2)cc1 | 15.6 µM (inactive) | 18 µM (inactive) | 31.5 µM (inactive) | 26 µM (inactive) | 12.6 µM (inactive) | 22.8 µM (inactive) | 31 µM (inactive) | 23.8 µM (inactive) | 37.9 µM (inactive) | 13.9 µM (inactive) | 25.1 µM (inactive) | 20 µM (inactive) | 26.4 µM (inactive) | 20.1 µM (inactive) | 34.4 µM (inactive) | 20.5 µM (inactive) | 42.2 µM (inactive) | 15.6 µM (inactive) | 37.8 µM (inactive) | 23.9 µM (inactive) |
| NC1=CN(CCCO)C2=N/C(=C\c3ccccc3)C(=O)N12 | > 100 µM (inactive) | > 100 µM (inactive) | > 100 µM (inactive) | > 100 µM (inactive) | > 100 µM (inactive) | > 100 µM (inactive) | > 100 µM (inactive) | > 100 µM (inactive) | > 100 µM (inactive) | > 100 µM (inactive) | > 100 µM (inactive) | > 100 µM (inactive) | > 100 µM (inactive) | > 100 µM (inactive) | > 100 µM (inactive) | > 100 µM (inactive) | > 100 µM (inactive) | 85.7 µM (inactive) | 69.5 µM (inactive) | > 100 µM (inactive) |
| O=C1C(c2c(O)[nH]c3ccc(I)cc23)=Nc2ccccc21 | 4.07 µM (inactive) | 5.61 µM (inactive) | 2.94 µM (inactive) | 4.88 µM (inactive) | 11.6 µM (inactive) | 3.23 µM (inactive) | 0.0873 µM (active) | 6 µM (inactive) | 7.06 µM (inactive) | 7.1 µM (inactive) | 12.1 µM (inactive) | 3.51 µM (inactive) | 9.25 µM (inactive) | 1.67 µM (inactive) | 4.95 µM (inactive) | 3.78 µM (inactive) | 7.53 µM (inactive) | 1.9 µM (inactive) | 4.67 µM (inactive) | 5.24 µM (inactive) |
